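The compound was tested at five concentrations on cells cultured in 96-well plates, with a 48-hour exposure period. GI50 is the concentration that inhibits growth by half. TGI: concentration producing complete growth inhibition.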
How the values were obtained:
Assay in all cases: DTP human tumour cell line panel, 48 h
[1] = tested on: RPMI-8226 leukemia
[2] = tested on: K-562 leukemia
[3] = tested on: UACC-62 melanoma
[4] = tested on: HOP-62 NSCLC
[5] = tested on: HOP-92 NSCLC
[6] = tested on: PC-3 prostate
[7] = tested on: COLO 205 colon
[8] = tested on: EKVX NSCLC
[9] = tested on: SNB-78 CNS
[10] = tested on: KM20L2 colon

| Structure (SMILES) | GI50 [1] [µM] | TGI [1] [µM] | GI50 [2] [µM] | TGI [2] [µM] | GI50 [3] [µM] | TGI [3] [µM] | GI50 [4] [µM] | TGI [4] [µM] | GI50 [5] [µM] | TGI [5] [µM] | GI50 [6] [µM] | TGI [6] [µM] | GI50 [7] [µM] | TGI [7] [µM] | GI50 [8] [µM] | TGI [8] [µM] | TGI [9] [µM] | GI50 [10] [µM] | TGI [10] [µM] |
| --- | --- | --- | --- | --- | --- | --- | --- | --- | --- | --- | --- | --- | --- | --- | --- | --- | --- | --- | --- |
| COc1ncc(-c2ccc3ncnc(Nc4cccc(Cl)c4)c3c2)cc1NS(C)(=O)=O | 2.19 | 9.24 | 4.51 | 85.3 | 1.79 | 12.2 | 1.53 | 42.4 | 0.472 | 5.28 | 2.02 | 16.6 | 1.75 | 7.36 | 0.579 | 9.65 | – | – | – |
| COc1ccc(C(=O)c2cc(C)c(OC)c(C)c2)c(OC)c1OC(=O)C(Cl)Cl | 0.0416 | 27.8 | 0.0336 | > 100 | 0.657 | > 100 | 0.221 | > 100 | 0.216 | > 92.9 | 0.0436 | > 100 | 6.74 | 32.4 | 0.321 | > 100 | – | – | – |
| CCN(CC)CCOc1ccccc1-n1c(C)ccc1-c1ccccc1 | 22.9 | 68.7 | 10.7 | 32 | 15.8 | 30.6 | 17 | 31.1 | 12.6 | 32.8 | 12.4 | 29.2 | 9.9 | 22.5 | 15.8 | 33.6 | – | – | – |
| CCSc1nc(N)c(C#N)c(-c2ccc(OC)c(OC)c2)c1C#N | 14.8 | > 50 | 10.7 | 27.7 | 8.65 | 45.2 | 18.4 | > 50 | 6.49 | > 50 | 10.4 | > 50 | 17.5 | > 50 | 32.2 | > 50 | – | – | – |
| COc1cc(NC(=O)c2cc3ccccc3cc2O)c(OC)cc1Cl | 0.153 | 1.18 | 1.84 | – | 1.35 | 5.65 | 1.44 | 4.7 | 1.56 | 4.95 | 1.56 | 4.46 | 2.44 | 8.51 | 1.29 | 5.01 | – | – | – |
| Nc1ccccc1-n1c2c(c3ccccc3c1=O)C(=O)c1ccccc1-2 | – | > 100 | – | > 100 | – | > 100 | – | 22.9 | – | 53.6 | – | 97.4 | – | > 100 | – | > 100 | – | – | – |
| Cn1c(=S)c2[nH]c(SCc3cccnc3)nc2n(C)c1=O | – | > 100 | – | > 100 | – | > 100 | – | > 100 | – | > 100 | – | > 100 | – | > 100 | – | > 100 | – | – | – |
| COC(=O)C(Br)(C(=O)OC)C(Br)C(Br)C(Br)c1ccccc1 (stereo not drawn) | 2.97 | 9.34 | 2.95 | 9.93 | 2.28 | 6.56 | 6.31 | 15.7 | 3.42 | 12.3 | 4.58 | 17.3 | 1.87 | 3.56 | 13.9 | 31.9 | – | – | – |
| COc1ccc(-n2nc(C(=O)NCC(=O)Nc3nc4cc(OC)ccc4s3)c3ccccc3c2=O)cc1 | – | > 100 | > 37.7 | > 100 | 1.76 | – | 0.663 | 2.07 | 0.572 | 1.68 | 1.26 | – | 0.477 | 3.89 | 1.96 | 14.8 | – | – | – |
| O=C1c2ccccc2-c2c1c1ccc3ccccc3c1n2-c1ccccc1 | 65.1 | > 100 | > 100 | > 100 | 20.4 | 44.2 | 25.1 | 58.7 | 16 | 52.1 | 35.7 | > 100 | 30.7 | > 100 | 40 | > 100 | – | – | – |
| Cc1cccc(/C=N/N=C(\N)NO)n1 | – | – | – | > 100 | – | 8.83 | – | > 100 | – | 98.3 | – | – | – | > 100 | – | > 100 | > 100 | – | – |
| CCCCCCCCCCCc1cc(=O)c2c(O)cccc2o1 | – | > 100 | – | > 100 | – | > 100 | – | > 100 | – | > 100 | – | – | – | > 100 | – | > 100 | > 100 | – | – |
| COC(=O)CCC(=O)Nc1cc(C)ccc1C | – | > 100 | – | > 100 | – | > 100 | – | > 100 | – | > 100 | – | – | – | > 100 | – | > 100 | > 100 | – | – |
| Nc1n[nH]c2cc(F)c([C@@H]3Nc4c(F)cc5[nH]ncc5c4[C@H]4C5CCC(C5)[C@@H]34)cc12 (stereo partly drawn) | 0.145 | 5.22 | 0.11 | 12.7 | 0.162 | 6.77 | 0.195 | 6.46 | 0.36 | 4.1 | 0.149 | 8.04 | 0.124 | 1.03 | 0.167 | 23.4 | – | – | – |
| CC1=CC[C@@H]2C(=O)C=CC=C[C@H]12.[C-]#[O+].[C-]#[O+].[C-]#[O+].[Fe] | > 100 | > 100 | > 100 | > 100 | > 100 | > 100 | > 100 | > 100 | – | – | – | – | – | – | – | – | – | > 100 | > 100 |
| COc1ccccc1N1CCN(CC(O)Cn2c(=O)c3c(OC)nc(C)cc3c(=O)n2-c2ccccc2)CC1 (stereo not drawn) | 39.6 | > 100 | > 100 | > 100 | 64.9 | > 100 | 43.7 | > 100 | 15.7 | 36 | 43 | > 100 | > 100 | > 100 | 66.1 | > 100 | – | – | – |
| COc1ccccc1CNC(=O)/C=C/c1ccc(O)c(O)c1 | 34.7 | > 100 | 39.6 | > 100 | 34.8 | > 100 | 61.9 | > 100 | 48.4 | > 100 | > 100 | > 100 | 24.4 | > 100 | 48.2 | > 100 | – | – | – |
| CC(C)(C)c1cc(C#N)c2c(c1)C(=O)OC2(c1ccccc1)c1ccccc1C#N (stereo not drawn) | – | – | – | > 100 | – | > 100 | – | > 100 | – | – | – | – | – | > 100 | – | > 100 | > 100 | – | > 100 |

— PubChem BioAssay (NCI)
